# Experimental data as given in publication PMC9145865, “Effects of Rare Phytocannabinoids on the Endocannabinoid System of Human Keratinocytes” (International Journal of Molecular Sciences, 2022).
# System: DAGLβ
# Assay: Western blot protein expression of DAGLβ
# Format: cell-based, human
# Conditions: HaCaT cells, half-IC50 dose, 24 h, vs. control
# Description: The HaCaT cells were seeded into 6-well plates at a density of 4 × 10^4 per well, incubated overnight and then treated with the selected pCBs (6.0 µM of CBG, 4.0 µM of CBC, 9.0 µM of THCV and 13.0 µM of CBGA) for 24 h. The cell pellets were collected and then lysed in an ice-cold lysis buffer (10 mM of EDTA, 50 mM of pH 7.4 Tris–HCl, 150 mM of sodium chloride, 1% Triton-X-100, 2 mM of phenylmethylsulfonyl fluoride, 2 mM of sodium orthovanadate, […] of leupeptin and […] of aprotinin). The amount of protein was determined using the Bio-Rad Protein assay (Bio-Rad Laboratories, Hemel Hempstead, UK). An equal amount of protein (60 µg) was loaded onto 10% sodium dodecyl sulfate–polyacrylamide gels and blotted onto polyvinylidene fluoride sheets (Amersham Biosciences, Piscataway, NJ, USA). The membranes were blocked with dried 5% non-fat milk for 1 h and then incubated with suitable primary antibodies. Detection was performed using Azure Biosystems c400 (Dublin, CA, USA). The membranes were stripped using the Restore Western Blot Stripping Buffer from Thermo Fisher Scientific (Waltham, MA, USA) for 30 min under agitation at room temperature, according to the manufacturer’s instructions. The primary antibodies (Table 6) that were used were obtained from the following sources: […]
smiles,measurement,value
"CCCc1cc(O)c2c(c1)OC(C)(C)[C@@H]1CCC(C)=C[C@@H]21 [THCV, Δ^9-tetrahydrocannabivarin]",DAGLβ protein expression (in words),significantly reduced
same,Protein Expression DAGLβ,↓+++
